# Data reported in PMC9860980, “Pharmacokinetics and Pharmacodynamics (PK/PD) of Corallopyronin A against Methicillin-Resistant Staphylococcus aureus” (Pharmaceutics, 2022).
# Tests used:
# [1] = tested on: S. aureus strain ATCC 33591 (MRSA-strain); settings: 5 mg/kg IP TID; 24 h post infection
# Protocol: Organ samples were thawed and homogenized using a Polytron tissue homogenizer after addition of 3 mL isotonic sodium chloride solution. First, a calibration curve was prepared by spiking different concentrations of CorA into the respective matrix from CD-1 mice. Caffeine was used as an internal standard. In addition, quality control samples (QCs) were prepared for CorA for every matrix. For PD samples, calibration curve and QCs were prepared for levofloxacin using the same protocol. The following extraction procedure was used: 50 µL of a sample (calibration sample, QCs, PK or PD sample) was extracted with 20 µL of acetic acid in water (10/90 (v/v)) and 30 µL acetonitrile for 5 min at 800 rpm on an Eppendorf MixMate® vortex mixer. Then, samples were spun down for 20 min at 4 °C and 4000 rpm and supernatants were transferred to new Greiner 96-well V-bottom plates. Samples were analyzed using an Agilent 1290 Infinity II HPLC system (Waldbronn, Germany) coupled to an AB Sciex QTrap6500plus mass spectrometer (Darmstadt, Germany). LC conditions were as follows: column: Agilent Zorbax Exlipse Plus C18, 50 × 2.1 mm, 1.8 µm; temperature: 30 °C; injection volume: 5 µL per sample; flow rate: 800 µL/min. Samples were run under buffered conditions: A: 95% water + 5% acetonitrile + 5 mM ammonium acetate + 40 µL/L acetic acid; B: 95% acetonitrile + 5% water + 5 mM ammonium acetate + 40 µL/L acetic acid. The gradient was as follows: 99% A at 0 min, 99% A until 0.1 min, 99–0% A from 0.1 min to 4.0 min, 0% A until 4.5 min. Mass transitions for controls and compounds are depicted in Table S1. Peaks of PK samples were quantified using the calibration curve. The accuracy of the calibration curve was determined using QCs independently prepared on different days. PK parameters were determined using a non-compartmental analysis with PKSolver.
# Inocula were prepared as described previously with the modification that isotonic sodium chloride solution was used instead of PBS [25]. For the neutropenic thigh and the neutropenic lung infection model the S. aureus strain ATCC 33591 (MRSA-strain) was used. For the neutropenic lung infection model an inoculum of 2 × 10^9 cfu/mL was used. For the neutropenic thigh infection model an inoculum of 7 × 10^5 cfu/mL was used.
# The model was conducted as described previously. In brief, the following groups were used: (1) inoculum control group with terminal endpoint at 2 h post infection to determine baseline inoculum in vivo; (2) vehicle-treated group receiving 20 mg/kg SC tramadol and vehicle (PEG400/PBS (80:20 (v/v)); (3) levofloxacin group 5 mg/kg IP three times a day (TID) (t = 2, 6 and 10 h post infection); (4) CorA 60 mg/kg IP TID (t = 2, 6 and 10 h post infection) and (5) CorA 100 mg/kg IP BID (t = 2 and 6 h post infection). The endpoint for groups no. 2–5 was 24 h post infection. A solution of […].
# [2] = tested on: S. aureus strain ATCC 33591 (MRSA-strain); experiment: Neutropenic lung infection model with MRSA; type: in vivo, Staphylococcus aureus; settings: 100 mg/kg IP (t = 2 h post infection); 24 h post infection
# Protocol: Female, 8-week-old CD-1 mice (Charles River, Sulzfeld, Germany) were used (n = 6 animals per group). Animals were rendered neutropenic by administration of 150 mg/kg and 100 mg/kg cyclophosphamide IP on days -4 and -1, respectively. On the day of infection (day 0), mice received 15 µL of the inoculum administered via an Aeroneb® nebulizer device (Kent Scientific, Torrington, CT, USA) under anesthesia (100 mg/kg ketamine and 10 mg/kg xylazine). Mice were treated with (I) vehicle IP (PEG400/PBS), (II) with levofloxacin at 100 mg/kg IP (t = 2 h post infection, positive control group), (III) CorA at 60 mg/kg IP TID (t = 2, 5 and 9 h post infection) or (IV) CorA at 60 mg/kg IP (t = 2 h post infection) and 100 mg/kg SC BID (t = 5 and 9 h post infection).
# Twenty-four hours after infection, mice were euthanized, blood was removed from the heart and lungs were aseptically removed. Whole blood was collected into Eppendorf (Hamburg, Germany) tubes coated with 0.5 M EDTA, immediately spun down at 13,000 rpm for 10 min at 4 °C, the plasma transferred into a new Eppendorf tube and stored at −80 °C until analysis. Organs were homogenized in isotonic sodium chloride solution and plated onto blood agar plates in duplicates in serial dilutions and incubated at 37 °C for 24 h.
smiles,measurement,setting,value
"C[C@H]1COc2c(N3CCN(C)CC3)c(F)cc3c(=O)c(C(=O)O)cn1c23 [Levofloxacin, reference compound]",bacterial burden in thigh tissue,[1],significant reduction
same,reduction of bacterial burden in lung tissue compared to the vehicle-treated group,[1],approximately 2 log10-units
same,reduction in bacterial burden in lung tissue,[2],more than 2 log10-units
